Results from patent US9879043B1, “Synthesis of non-natural cofactor analogs of S-adenosyl-L-methionine using methionine adenosyltransferase” (University of Kentucky Research Foundation, priority 2013, dated 2018).

Key:
Format in all cases: biochemical
[1] = target: T1, Sulfolobus solfataricus MAT (sMAT) (Saccharolobus solfataricus, UniProt Q980S9); conditions: ADP in place of ATP, 65° C. for 4 hr, standard assay conditions
T1 sequence (Q980S9 1-404): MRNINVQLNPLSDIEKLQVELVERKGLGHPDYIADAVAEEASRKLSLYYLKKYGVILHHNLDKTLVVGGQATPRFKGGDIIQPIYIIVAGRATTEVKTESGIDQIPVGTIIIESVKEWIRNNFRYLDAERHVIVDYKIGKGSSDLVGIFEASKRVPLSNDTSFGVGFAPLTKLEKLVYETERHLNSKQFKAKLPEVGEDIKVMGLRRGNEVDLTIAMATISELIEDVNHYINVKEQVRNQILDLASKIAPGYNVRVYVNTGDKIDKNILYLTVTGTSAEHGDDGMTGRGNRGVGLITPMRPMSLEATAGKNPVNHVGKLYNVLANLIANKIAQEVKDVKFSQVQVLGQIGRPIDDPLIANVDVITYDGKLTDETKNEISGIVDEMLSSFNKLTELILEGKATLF

[2] = target: human MAT II catalytic alpha and regulatory beta subunit (hMAT2) (Homo sapiens, UniProt P31153); assay: MAT assay, turnover of S/Se-Met analogs to S(Se)AM analogs (RP-HPLC end point); conditions: 2 mM Met analog, 1 mM ATP, 5 μM MAT, pH 8, 4 h, 37° C.; average of two assays
Protocol: (§1) Standard uniform assay conditions (2 mM Met analog, 1 mM ATP, 5 μM MAT, 25 mM Tris, 5 mM MgCl2, 50 mM KCl, pH 8, 4 h) were adopted to facilitate this broad assessment. For the thermophilic counterpart (mMAT), reactions were conducted at 65° C., while all other reactions were incubated at 37° C. Production of SAM analogs was determined by an RP-HPLC end point assay to afford complete analysis of the desired SAM analog and/or any corresponding degradation products known to directly derive from the desired SAM analog intermediate.
(§2) To monitor MAT reactions, analytical RP HPLC employed a Luna C18 column (5 μm, 4.6 mm×250 mm; Phenomenex, Torrance, Calif., USA) [gradient of 10% B to 40% B over 15 min, 40% B to 75% B over 5 min (A=10 mM NaH2PO4, 5 mM octane sulfonic acid, pH was adjusted to 3.5 using phosphoric acid; B=acetonitrile) flow rate=1 mL min^−1; A254].
(§3) The sMAT and mMAT reactions were conducted at 65° C. while hMATs and eMAT were incubated at 37° C. Reactions were quenched by adding an equal volume of methanol followed by centrifugation (10,000×g for 15 min) to remove the precipitated protein and product formation for each reaction was subsequently analyzed by RP-HPLC using Method D (FIG. 15, first column). For each reaction, percent yield was based upon the integration of species at 254 nm and calculated by dividing the integrated area of product and/or decomposed product by the sum of integrated area of product and/or decomposed product and the remaining substrate. The assays were repeated twice under identical conditions, and Table 2 (and FIG. 5) represents an average value of two assays. The inclusion of adenine and 5′-R-thio-5′-adenosine in these calculations is based upon the established SAM and ATP chemical decomposition pathways which indicate adenine and 5′-R-thio-5′-adenosine to only derive from SAM (not ATP). All putative products were subsequently confirmed by high resolution electrospray ionization (ESI) mass spectra with positive (+) and/or negative (−) mode.

[3] = target: human MAT I catalytic subunit alpha (hMAT1A) (Homo sapiens, UniProt Q00266); assay: as above; conditions: 2 mM Met analog, 1 mM ATP, 5 μM MAT, pH 8, 4 h, 37° C.; average of two assays
Protocol: as §1, §2, §3

[4] = target: human MAT II catalytic alpha subunit alone (hMAT2A) (Homo sapiens, UniProt P31153); assay: as above; conditions: 2 mM Met analog, 1 mM ATP, 5 μM MAT, pH 8, 4 h, 37° C.; average of two assays
Protocol: as §1, §2, §3

[5] = target: T1, Sulfolobus solfataricus MAT (sMAT); conditions: 2 mM analog, 1 mM ATP, 5 μM sMAT, pH 8.0, 4 h at 65° C.; average of two assays
Protocol: In-vitro sMAT assay: In vitro sMAT reactions were conducted in a volume of 50 μl with 2 mM S/Se-alkylated analog, 1 mM ATP and 5 μM purified sMAT in 25 mM Tris buffer pH 8.0, 5 mM MgCl2, 50 mM KCl for 4 h at 65° C. Reactions were quenched by adding an equal volume of methanol followed by centrifugation (10,000×g for 15 min) to remove the precipitated protein and product formation for each reaction was subsequently analyzed by reverse phase HPLC (RP-HPLC) using method described below. For each reaction, percent yield was based upon the integration of species at 254 nm and calculated by dividing the integrated area of product and/or decomposed product by the sum of integrated area of product and/or decomposed product and the remaining substrate. The assays were repeated twice under identical conditions, and Table 4 (and FIG. 17) represents an average value of two assays. The inclusion of adenine and 5′-R-thio-5′-adenosine in these calculations is based upon the established SAM and ATP chemical decomposition pathways which indicate adenine and 5′-R-thio-5′-adenosine to only derive from SAM (not ATP). All putative products were subsequently confirmed by high resolution electrospray ionization (ESI) mass spectra with positive (+) and/or negative (−) mode.
RP-HPLC method: Reactions were quenched by the addition of equal volume of methanol followed by centrifugation at 10,000 g for 15 min to remove precipitated protein before applying on an analytical Varian ProStar HPLC [Luna C18 column, 5 μm, 4.6 mm×250 mm; Phenomenex, Torrance, Calif., USA; gradient of 10% B to 40% B over 15 min, 40% B to 75% B over 5 min (A=10 mM NaH2PO4, 5 mM octane sulfonic acid, pH was adjusted to 3.5 using phosphoric acid; B=acetonitrile) flow rate=1 mL min^−1; A254].

[6] = target: T2, Methanocaldococcus jannaschii MAT (mMAT) (Methanocaldococcus jannaschii, UniProt Q58605); conditions: 2 mM Met analog, 1 mM ATP, 5 μM MAT, pH 8, 4 h, 65° C.; average of two assays
T2 sequence (Q58605 1-406): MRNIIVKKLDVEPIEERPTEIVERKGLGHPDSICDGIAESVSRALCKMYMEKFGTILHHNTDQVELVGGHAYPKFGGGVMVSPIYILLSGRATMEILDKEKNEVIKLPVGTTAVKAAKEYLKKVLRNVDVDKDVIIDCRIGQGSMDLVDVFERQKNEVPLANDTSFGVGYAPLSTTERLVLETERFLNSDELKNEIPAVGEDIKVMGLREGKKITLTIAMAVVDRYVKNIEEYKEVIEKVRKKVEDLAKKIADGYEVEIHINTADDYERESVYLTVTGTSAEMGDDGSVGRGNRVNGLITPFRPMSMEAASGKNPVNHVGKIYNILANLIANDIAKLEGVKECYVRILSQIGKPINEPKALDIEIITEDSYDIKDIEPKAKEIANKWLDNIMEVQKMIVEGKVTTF
Protocol: as §1, §2, §3

[7] = target: Escherichia coli MAT (eMAT) (Escherichia coli, UniProt P0A817); assay: MAT assay, turnover of S/Se-Met analogs to S(Se)AM analogs (RP-HPLC end point); conditions: 2 mM Met analog, 1 mM ATP, 5 μM MAT, pH 8, 4 h, 37° C.; average of two assays
Protocol: as §1, with “intermediate. Putative SAM analog and SAM-derived degradative product formation was subsequently confirmed via high-resolution mass spectrometry (HRMS) analysis for all positive reactions (see Table 2).” for “intermediate.”
as §2
as §3, with “In vitro MAT reactions were conducted in a volume of 50 μl with 2 mM S/Se-alkylated analog (compounds 2-30), 1 mM ATP and 5 μM purified MAT in 25 mM Tris buffer pH 8.0, 5 mM MgCl2, 50 mM KCl for 4 h. The sMAT” for “The sMAT”

Row | Structure (SMILES) | product formation from ADP and methionine [1] | Percentage Turn-over hMAT2 [2] | Percentage Turn-over hMAT1A [3] | Percentage Turn-over hMAT2A [4] | Percentage Turn-Over (sMAT) [5] | Percentage Turn-over mMAT [6] | Percentage Turn-over eMAT [7]
1 | Nc1ncnc2c1ncn2[C@@H]1O[C@H](COP(=O)(O)OP(=O)(O)O)[C@@H](O)[C@H]1O [ADP] | no detectable product |  |  |  |  |  | 
2 | [N-]=[N+]=NC/C=C/CSCC[C@H](N)C(=O)O [compound 23, (2S)-2-amino-4-{[(2E)-4-azidobut-2-en-1-yl]sulfanyl}butanoic acid] |  | 12% | 2% | 5% | 28% | 32% | 0%
